Earlier results on two substances are cited in US10663473B2, “Method of identifying a status of a mucosal intestinal epithelial barrier to improve treatment of inflammatory bowel disease” (Maximus Diagnostic Technologies LLC, priority 2016, dated 2020).

The test system of this series is IBD patients. The following applies: cited from earlier work.

As to “golimumab: monoclonal antibody to TNF-alpha sold under the trademark Simponi”, the “short-term and long-term clinical response rate” value (all UC patients) is listed as 50%.

Consider “vedolizumab: monoclonal antibody that specifically binds to integrin α4β7, sold under the name ENTYVIO by Takeda Pharmaceuticals”, for which the clinical response rate result (particularly for Crohn's disease, compared with anti-TNF agents) is listed as “low”.
